Data as given in PubChem BioAssay AID1013 (Columbia University Molecular Screening Center, 2008).
The source made the active and inactive calls. No rule for the calls is given here.

Assay: blockers of VCAM1 upregulation by TNFa – imaging, TNFa stimulus, retest and dose response, confirmation (AID 1013);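 as to cell count: compound on cells 1 h before TNFa then 24 h more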
Settings: TNFa-stimulated cells, VCAM1 expression imaging; at 2 µM; stronger effect = higher value
With `O=C(c1cc(-c2ccncc2)nc2ccc(Br)cc12)N1CCN(c2ccccn2)CC1` the inhibition was 1.3% (inactive). For `Cc1ccc(NC(=O)Cn2nnc(-c3ccccc3NC(=O)c3cccs3)n2)cc1`, the inhibition was 9.2% (inactive). For `CCn1c(SCC(=O)Nc2ccc(C(=O)OC)cc2)nnc1-c1cccs1`, the inhibition was 10.1% (inactive). For `FC(F)(F)c1cc(-c2ccc3c(c2)OCO3)nc(NCc2ccco2)n1`, the inhibition was 16.2% (inactive). For `CCn1c(CN2CCN(c3ccc(Cl)cc3)CC2)nc2ccccc21`, the inhibition was 23.2% (inactive). With `Cc1nnc(SCc2cn3ccsc3n2)n(N)c1=O` the inhibition was -9.6% (inactive). For `CC(=O)Nc1ccc(S(=O)(=O)n2cnc(C)c2)cc1`, the inhibition was -13.1% (inactive). With `O=C(CSc1nc2ccccc2s1)NNC(=S)Nc1ccc(Br)cc1` the inhibition was 1.8% (inactive). In the case of `Nc1cc(=O)nc(SCc2ccccc2)n1Cc1ccco1`, the inhibition is reported as 7% (inactive). For `CCN1C(=O)CSC1=NC12CC3CC(CC(C3)C1)C2`, the inhibition was -5.9% (inactive). In the case of `O=C(N/N=C/c1ccncc1)c1ccccc1`, the inhibition is reported as 5.8% (inactive). In the case of `Oc1ccc(N2CCN(c3ncnc4sc5c(c34)CCC5)CC2)cc1`, the inhibition is reported as 10.1% (inactive). In the case of `O=C1CC(c2cc(Br)ccc2F)c2cc3c(cc2N1)CCC3` (stereo not given), the inhibition is reported as 24.3% (inactive). With `CCOc1cc(S(=O)(=O)Nc2ccccc2CC)ccc1Cl` the inhibition was -2.9% (inactive). With `Cc1ccc(-n2nc3ccc(NC(=O)/C=C/c4ccco4)cc3n2)cc1C` the inhibition was 14% (inactive). With `CC1(C)Cc2c(oc3ncn4ncnc4c23)CO1` the inhibition was -8% (inactive). With `Cc1ccc(OCc2ccoc2C(=O)O)cc1C` the inhibition was 2.2% (inactive). In the case of `O=C(COc1ccccc1-c1ccccc1)N/N=C/c1cccc2ccccc12`, the inhibition is reported as 76.4% (inactive). For `Cc1ccccc1-c1cc(-c2ccccc2O)on1`, the inhibition was 25.2% (inactive). With `COc1ccc(C(c2sc3ncnn3c2O)N2CC(C)OC(C)C2)cc1OC` (stereo not given) the inhibition was 14.8% (inactive). For `O=[N+]([O-])c1cnccc1Nc1ccc(F)cc1`, the inhibition was 15.4% (inactive). In the case of `Cc1noc(C)c1S(=O)(=O)N1CCC2(CC1)OCCO2`, the inhibition is reported as 7.1% (inactive). For `COc1cc2c3c(c1OC)-c1cc(O)ccc1CC3NCC2` (stereo not given), the inhibition was -7.7% (inactive). In the case of `COc1cccc(OC)c1NC(=O)CN1CCC(NC(=O)c2cccc(F)c2)CC1`, the inhibition is reported as 6.5% (inactive). For `Cc1ccn2c(NC(=O)c3ccco3)c(-c3ccccc3)nc2c1`, the inhibition was 3.4% (inactive). For `C(=N\Nc1nc2ccccc2s1)/c1cccs1`, the inhibition was 5.1% (inactive). In the case of `Cc1ccc(Nc2nc(CSc3nnnn3C)cs2)cc1`, the inhibition is reported as -5.5% (inactive). With `CN1C(=O)N(C)C(=O)C2(Cc3ccccc3N3CCOCC32)C1=O` (stereo not given) the inhibition was 6.4% (inactive). With `CC1=NNC(=O)/C1=C\c1cn(-c2ccccc2)nc1-c1ccc(Cl)cc1` the inhibition was -15.6% (inactive). For `O=C1CCSc2cccc3cccc(c23)N1`, the inhibition was 2.8% (inactive). With `CCCCC(=O)NC(=S)Nc1ccccc1C(=O)Nc1ccccc1` the inhibition was -2.5% (inactive). In the case of `COc1ccc(-c2c/c(=N\c3nc(-c4ccccc4)c(C)s3)c3ccccc3o2)cc1O`, the inhibition is reported as 34.3% (inactive). In the case of `Cc1cnc(NC(=O)C2CCCC2)s1`, the inhibition is reported as 14.1% (inactive). For `Nc1sccc1C(=O)c1ccc(Cl)cc1`, the inhibition was -3.9% (inactive). With `CC(=O)Nc1ccc(NC2(C)C(=O)c3ccccc3C2=O)cc1` the inhibition was -3.5% (inactive). In the case of `Cc1cc(C)n(-c2nc3ccccc3nc2N2CCN(C(=O)c3ccc(Cl)cc3)CC2)n1`, the inhibition is reported as -5.2% (inactive). For `O=C(Cc1ccc(-n2cccc2)cc1)NC1CCCCCC1`, the inhibition was 5.8% (inactive). In the case of `O=C(O)c1cccc(S(=O)(=O)Nc2ccccc2Cl)c1`, the inhibition is reported as -5.6% (inactive). In the case of `C=C1N2CCC(CC2)C1(O)c1ccccc1C` (stereo not given), the inhibition is reported as -7.5% (inactive). For `O=C(CN1CCSCC1)N1CCc2[nH]c3ccc(Br)cc3c2C1`, the inhibition was -11.1% (inactive). For `Cc1nc(S(=O)(=O)N(C)Cc2ccccc2)c(C#N)c(C)c1Cl`, the inhibition was 1.7% (inactive). In the case of `COc1ccc(OC)c(C2CC(=O)c3c([nH]c(C(=O)OC(C)C)c3C)C2)c1` (stereo not given), the inhibition is reported as 35.5% (inactive). With `S=c1[nH]nc(COc2ccc3c(c2)OCO3)n1-c1ccccc1` the inhibition was 1% (inactive). In the case of `Cc1nn(-c2cc(C)c3ccccc3n2)c2c1C1C(C2)C1(C)C` (stereo not given), the inhibition is reported as -11.4% (inactive). With `O=C(NCc1ccco1)c1ccc(CS(=O)(=O)Cc2ccc(Cl)cc2)o1` the inhibition was -2.1% (inactive). With `CCOC(=O)Cc1csc(NC(=O)COc2ccc(N(C)S(=O)(=O)c3ccc(C)cc3)cc2)n1` the inhibition was -1.3% (inactive). In the case of `O=C(NC1CC1)c1ccc(S(=O)(=O)NCC2CCCCC2)cc1`, the inhibition is reported as 7.4% (inactive). With `COc1cc(C2Nc3ccc4ncccc4c3C3=C2C(=O)CCC3)cc(OC)c1O` (stereo not given) the inhibition was -11.9% (inactive). In the case of `CCn1c(SCC(=O)N2CCN(c3cccc(Cl)c3)CC2)nc2ccccc2c1=O`, the inhibition is reported as 8.3% (inactive). With `Cc1cccc(C(=O)Oc2ccccc2C2C[C@]3(C)CC(=O)NC3N2C(=O)c2cccc(C)c2)c1` (stereo not given in full) the inhibition was -2.5% (inactive). In the case of `CCC1=NC(c2ccccc2Cl)N(O)C1(C)C` (stereo not given), the inhibition is reported as 5.5% (inactive). In the case of `N=C1C(c2nc3ccccc3s2)=C(O)CN1Cc1ccco1`, the inhibition is reported as -3% (inactive). In the case of `Cc1ccc(S(=O)(=O)Cn2nnnc2C(C(C)C)N2CCN(c3nc4ccccc4s3)CC2)cc1` (stereo not given), the inhibition is reported as -0.6% (inactive). In the case of `NC(=O)c1c(NC(=O)Cc2cccs2)sc2c1CCC2`, the inhibition is reported as -16.5% (inactive). For `Cc1c(Cl)cccc1-n1ccnc1SCC(=O)O`, the inhibition was -7.8% (inactive). For `O=C1CC(c2ccccc2)Cc2nc3ncnn3cc21` (stereo not given), the inhibition was -11.3% (inactive). In the case of `O=C(NCc1cccs1)c1nc2c(nnn2Cc2ccccc2Cl)c(=O)[nH]1`, the inhibition is reported as 13.8% (inactive). With `Cc1cc(C)cc(NC(=O)CC2NCCNC2=O)c1` (stereo not given) the inhibition was 7.4% (inactive). With `O=C(CN1CCCCCC1=O)OCc1ncc(-c2ccccc2)o1` the inhibition was 9.7% (inactive). For `Cc1nc2ccccc2n1CCCOc1ccccc1`, the inhibition was -0.7% (inactive). For `O=C(Nc1ccccc1)c1nnsc1S(=O)(=O)c1ccc(Cl)cc1`, the inhibition was 20.4% (inactive). With `O=C(C1CCC1)N1CCc2cc(S(=O)(=O)Nc3ccc4c(c3)OCCO4)ccc21` the inhibition was -2.3% (inactive). For `COC(=O)Sc1nc(N2CCOCC2)c2c(c1C#N)CC(C)(C)OC2`, the inhibition was -5.9% (inactive). In the case of `CCC(=O)Nc1cccc(NC(=O)c2cc3ccccc3o2)c1`, the inhibition is reported as -3.1% (inactive). In the case of `OCCN=C(c1ccccc1)C12CN3CN(CN(C3)C1)C2`, the inhibition is reported as -1.2% (inactive). In the case of `C=C(C)c1cccc(C(C)(C)NC(=O)Nc2ncccn2)c1`, the inhibition is reported as -2.7% (inactive). In the case of `CC(CCc1ccccc1)NC(=O)c1ccc(Br)o1` (stereo not given), the inhibition is reported as -4.5% (inactive). For `CCC(=O)Nc1cccc(C(=O)/C=C/c2cc(Br)ccc2OC)c1`, the inhibition was 10% (inactive). For `O=C(O)c1cc2nc3c(c(C(F)(F)F)n2n1)CCc1ccccc1-3`, the inhibition was 4.4% (inactive). In the case of `N#Cc1cc2c(nc1SCC(=O)N1CCCCC1)CCCC2`, the inhibition is reported as -5.8% (inactive). In the case of `CC(=O)Nc1nc2cc3c(cc2s1)OCO3`, the inhibition is reported as -1.4% (inactive). With `COC(=O)c1[nH]c2cc(OC)ccc2c1NC(=O)CN1CCC(C(N)=O)(N2CCCCC2)CC1` the inhibition was -3.9% (inactive). For `Cc1nc([N+](=O)[O-])c(Br)n1CC(=O)c1ccc(Br)cc1`, the inhibition was 27% (inactive). In the case of `Cn1c(CNc2ccccc2O)nc2ccccc21`, the inhibition is reported as 11.9% (inactive). For `Cc1nc2sc(C(c3ccc(Cl)cc3)N3CC(C)OC(C)C3)c(O)n2n1` (stereo not given), the inhibition was -3% (inactive). For `CCc1nc2oc3ccccc3c(=O)c2c(=O)n1CCOC`, the inhibition was -0.1% (inactive). With `COc1ccc(Nc2nc(N3CCCC3)nc3ccccc23)c(OC)c1` the inhibition was 12.2% (inactive). In the case of `CC(=O)c1cccc(S(=O)(=O)N2CCC(n3nnc4cc(F)ccc43)CC2)c1`, the inhibition is reported as 3.2% (inactive). For `NC(=O)COC(=O)CCCc1c[nH]c2ccccc12`, the inhibition was 0.5% (inactive). With `O=C(Oc1csc(=S)n1C(=O)c1ccccc1)c1ccccc1` the inhibition was 4% (inactive). For `O=C(Cn1ncc2c(=O)oc3ccccc3c21)NCCC1=CCCCC1`, the inhibition was -1.9% (inactive). For `N=c1nc(N)nc2n1NC(c1ccc(F)cc1)=CS2`, the inhibition was -1.2% (inactive). For `N#CCc1nc2c3c4c(sc3ncn2n1)CCCC4`, the inhibition was 62.9% (inactive). For `COc1ccc(CC(=O)Nc2ccc(-c3noc(-c4cccc(OC)c4)n3)cc2)cc1`, the inhibition was 5.5% (inactive). In the case of `COc1ccc(-c2cc(C(=O)Nc3cc(C)n(Cc4ccc(Cl)cc4)n3)no2)cc1OC`, the inhibition is reported as 11.7% (inactive). In the case of `Cn1nc(C(=O)OCC(=O)N2CCc3ccccc32)c2ccccc2c1=O`, the inhibition is reported as 4.8% (inactive). For `CCCOC(=O)C1C2C=C[C@]3(CN(CCc4ccccc4)C(=O)[C@H]13)O2` (stereo not given in full), the inhibition was 4.5% (inactive). In the case of `CC(N)Cc1ccccc1Sc1ccc(O)cc1` (stereo not given), the inhibition is reported as -14.6% (inactive). With `CS(=O)(=O)N(CC(=O)NCc1ccccc1Cl)Cc1ccccc1` the inhibition was -0.5% (inactive). For `CC1(C)OC(=O)C(=NNc2ccc(O)cc2)C(=O)O1`, the inhibition was -6.2% (inactive). In the case of `CCOC(=O)c1ccc(NS(=O)C23CC4CC(CC(C4)C2)C3)cc1` (stereo not given), the inhibition is reported as -13.9% (inactive). With `COc1ccc(Cn2nnnc2C(c2cccs2)N2CCSCC2)cc1` (stereo not given) the inhibition was -1.3% (inactive). For `Cn1nc(C(=O)NCC2CCCO2)c2ccccc2c1=O` (stereo not given), the inhibition was -9% (inactive). With `C=CCc1ccccc1OCC(O)CNC` (stereo not given) the inhibition was 5.5% (inactive). With `CCOc1ccc2ccccc2c1/C=N/n1cncn1` the inhibition was 2.4% (inactive). With `Cc1cccc(OCCN2CSC(=S)N(C)C2)c1` the inhibition was -5.7% (inactive). With `O=C(NC(NC1CCS(=O)(=O)C1)C(=O)c1cccs1)c1ccccc1` (stereo not given) the inhibition was 9.9% (inactive). With `CCOC(=O)c1ccc(NC(=O)CCNc2c(N3CCCC3)c(=O)c2=O)cc1` the inhibition was -10.3% (inactive). In the case of `CCOc1ccc(C2/C(=C(\O)c3c(C)[nH]c(C(=O)OC)c3C)C(=O)C(=O)N2CCN(C)C)cc1` (stereo not given), the inhibition is reported as -5.6% (inactive). For `CCCC(C(=O)NC1CCCC1)N(CCCN1CCOCC1)C(=O)c1snc(C(N)=O)c1N` (stereo not given), the inhibition was 4.4% (inactive). For `CC(C)(C)NC(=O)CSc1nsc(SCC(=O)NC(C)(C)C)c1C#N`, the inhibition was 1.8% (inactive).

Same assay, conditions: TNFa-stimulated cells, VCAM1 expression imaging; cell count; at 10 µM; stronger effect = lower value
For `O=C(COc1ccccc1-c1ccccc1)N/N=C/c1cccc2ccccc12`, the cell count was 87.5%. Work on `COc1ccc(-c2c/c(=N\c3nc(-c4ccccc4)c(C)s3)c3ccccc3o2)cc1O` yielded a cell count of 98%. `Cc1nc([N+](=O)[O-])c(Br)n1CC(=O)c1ccc(Br)cc1` showed a cell count of 116%. `N#CCc1nc2c3c4c(sc3ncn2n1)CCCC4` showed a cell count of 87.3%.
